Measured values published in patent US20240067693A1, “POLYPEPTIDES AND USES THEREOF” (MEDIMMUNE LIMITED, priority 2020, published 2024).
Numbered stars: 1 amine (or outer) side, 2 acyl side, 3 side chain; on linkers, the order of the positions; unused ones are H or OH. Bridge positions count the residues as written; N and C are the ends. Square brackets hold non-standard residues; d marks the D form. Side chains are listed from the residue outwards. Peptide text beside a SMILES is read from it. * marks the point of attachment. C18 diacid = O=C(O)CCCCCCCCCCCCCCCCC(=O)*; γGlu = O=C(O)[C@H](CCC(=O)[*:2])N[*:1]; αMeF = C[C@](N)(Cc1ccccc1)C(=O)O; AEEA = NCCOCCOCC(=O)O; Aib = CC(C)(N)C(=O)O

Legend:
[1] = target: T1, human calcitonin receptor (hCTR) (Homo sapiens, UniProt P30988); assay: cAMP production in 1321N1 cells with stable recombinant expression of human calcitonin receptor (hCTR); type: cell-based; conditions: cAMP, 1321N1 cells, assay buffer with 0.1% BSA; read-out: EC50 (pM) hCTR
T1 construct: expressed in transfected cells
T1 sequence (P30988 25-474): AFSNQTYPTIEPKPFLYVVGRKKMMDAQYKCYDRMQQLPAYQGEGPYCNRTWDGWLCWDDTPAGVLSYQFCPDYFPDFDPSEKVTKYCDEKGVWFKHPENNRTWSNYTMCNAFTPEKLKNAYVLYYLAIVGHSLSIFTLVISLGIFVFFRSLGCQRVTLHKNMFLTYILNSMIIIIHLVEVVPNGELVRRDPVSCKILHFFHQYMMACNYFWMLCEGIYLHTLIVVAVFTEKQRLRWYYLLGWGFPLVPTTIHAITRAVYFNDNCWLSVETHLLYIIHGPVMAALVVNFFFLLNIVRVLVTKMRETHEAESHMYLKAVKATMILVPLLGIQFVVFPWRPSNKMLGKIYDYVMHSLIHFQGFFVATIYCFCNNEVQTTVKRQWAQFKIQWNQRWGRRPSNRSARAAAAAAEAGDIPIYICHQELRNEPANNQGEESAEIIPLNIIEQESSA
Summary of the method: (§1)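 EC50 values come from 4-parameter logistic fits of HTRF cAMP signal, normalised to maximal calcitonin or amylin effect. Peptides were tested in duplicate for 30 min at RT in IBMX-containing (0.5 mM) BSA/HEPES buffer pH 7.4 on stable 1321N1 (human CTR, AMYR3) or HEK (rat CTR, AMYR3) lines.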

[2] = target: T2, human amylin receptor (calcitonin receptor co-expressed with receptor activity modifying protein, RAMP3) (hAMYR3) (Homo sapiens, UniProt O60896+P30988); assay: cAMP production in 1321N1 cells with stable recombinant expression of human amylin receptor (hAMYR3); type: cell-based; conditions: for Ratio (selectivity hAMYR vs hCTR, ratio of EC50 values at the two receptors): EC50 hCTR / EC50 hAMYR3; for EC50: cAMP, 1321N1 cells, assay buffer with 0.1% BSA, read-out: EC50 (pM) hAMYR3
T2 construct: expressed in transfected cells
T2 sequence (P30988 25-474): T1 sequence (P30988 25-474)
T2 sequence (O60896 24-148 partner): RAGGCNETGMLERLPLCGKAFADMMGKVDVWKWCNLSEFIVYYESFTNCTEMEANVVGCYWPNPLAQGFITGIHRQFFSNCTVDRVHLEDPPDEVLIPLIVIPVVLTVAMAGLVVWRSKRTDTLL
Summary of the method: as §1

[3] = Thioflavin T fibrillation assay; type: physicochemical; conditions: ThT fibrillation assay; peptide 1 mg/mL in 25 mM sodium acetate buffer pH 4.0; 6 days at 37 °C with shaking; >144 h = no increase
From the text: Peptide aggregation that form fibrils is an indication of physical instability. Fibril formation in solution poses a significant risk for the stability of injectable peptide drug products. Thioflavin T (ThT) fibrillation assay is a useful tool to assess the aggregation kinetics of a peptide or protein under accelerated and stressed conditions that can be used to forecast the long-term viability of a compound in solution. ThT can selectively bind amyloid fibrils and the resultant complex emits strong fluorescence signal at 482 nm when excited at 450 nm (Anal Biochem. 1989 Mar;177(2):244-9). Monitoring of the change in fluorescence signal is an established method to study the fibril forming potential of peptides and proteins. ThT (purchased from Sigma Aldrich) stock solution is prepared by dissolving the ThT powder in Milli-Q water and filtered to obtain a 0.25 mM solution. The concentration of the solution is measured at 412 nm using an extinction coefficient of 36 mM^−1cm^−1. Test peptides were dissolved at 1 mg/mL in 25 mM sodium acetate buffer pH 4.0. 100 μL aliquot of peptide solution and 5 μL aliquot of ThT solution were placed in a clear bottom black fluorescence 96-well plate. 5 replicates of each test samples were placed in zo the same row of the plate. Buffer was placed in control wells for baseline correction. All empty wells were filled with water to prevent evaporation. The plate was sealed with aluminium seal and placed in fluorescence plate reader and incubated for 6 days at 37 ° C. with intermittent orbital shaking at 500 to 750 rpm. The fluorescence intensity was measured every 30 min using excitation at 444 nm and emission at 480 nm. The fibril forming potential of the test peptides was determined by measuring the average time taken to detect an increase in baseline corrected fluorescence intensity.

| Compound | EC50 [1] [pM] | Ratio (selectivity hAMYR vs hCTR, ratio of EC50 values at the two receptors) [2] | EC50 [2] [pM] | Time taken to detect increase in fluorescence intensity [3] [h] |
| --- | --- | --- | --- | --- |
| CC[C@H](C)[C@H](NC(=O)[C@@H]1CCCN1C(=O)CNC(=O)[C@](C)(Cc1ccccc1)NC(=O)[C@H](CC(N)=O)NC(=O)[C@H](CC(N)=O)NC(=O)[C@H](CO)NC(=O)[C@H](CO)NC(=O)[C@H](Cc1c[nH]cn1)NC(=O)[C@H](CCCNC(=N)N)NC(=O)[C@H](CC(C)C)NC(=O)[C@H](Cc1ccccc1)NC(=O)[C@H](CCC(=O)O)NC(=O)[C@H](C)NC(=O)[C@H](CC(C)C)NC(=O)[C@H](CCCNC(=N)N)NC(=O)[C@H](CCC(N)=O)NC(=O)[C@@H](NC(=O)[C@H](C)NC(=O)[C@@H]1CSSC[C@H](NC(=O)[C@@H](N)CCCCNC(=O)CC[C@H](NC(=O)CC[C@H](NC(=O)CCCCCCCCCCCCCCCCC(=O)O)C(=O)O)C(=O)O)C(=O)N[C@@H](CC(N)=O)C(=O)N[C@@H]([C@@H](C)O)C(=O)N[C@@H](C)C(=O)N[C@@H]([C@@H](C)O)C(=O)N1)[C@@H](C)O)C(=O)N[C@@H](CC(C)C)C(=O)N1CCC[C@H]1C(=O)N1CCC[C@H]1C(=O)N[C@H](C(=O)N[C@@H](CC(N)=O)C(=O)N[C@H](C(=O)NCC(=O)N[C@@H](CO)C(=O)N[C@@H](CC(N)=O)C(=O)N[C@H](C(=O)N[C@@H](Cc1ccc(O)cc1)C(N)=O)[C@@H](C)O)C(C)C)[C@@H](C)O [Peptide 11, K(γE-γE-C18diacid)[CNTATC]ATQRLAEFLRHSSNN(αMePhe)GPILPPTNVGSNTY-amide] (H-K([γGlu-γGlu-C18 diacid])CNTATCATQRLAEFLRHSSNN[αMeF]GPILPPTNVGSNTY-NH2; disulfide 2-7) | 3640 | 21 | 177 | >144 |
| CC[C@H](C)[C@H](NC(=O)[C@@H]1CCCN1C(=O)CNC(=O)[C@](C)(Cc1ccccc1)NC(=O)[C@H](CC(N)=O)NC(=O)[C@H](CC(N)=O)NC(=O)[C@H](CO)NC(=O)[C@H](CO)NC(=O)[C@H](Cc1c[nH]cn1)NC(=O)[C@@H](NC(=O)[C@H](CC(C)C)NC(=O)[C@H](Cc1ccccc1)NC(=O)[C@H](CC(N)=O)NC(=O)[C@H](C)NC(=O)[C@H](CC(C)C)NC(=O)[C@H](CCCNC(=N)N)NC(=O)[C@H](CCC(N)=O)NC(=O)[C@@H](NC(=O)[C@H](C)NC(=O)[C@@H]1CSSC[C@H](NC(=O)[C@@H](N)CCCCNC(=O)CC[C@H](NC(=O)CC[C@H](NC(=O)CCCCCCCCCCCCCCCCC(=O)O)C(=O)O)C(=O)O)C(=O)N[C@@H](CC(N)=O)C(=O)N[C@@H]([C@@H](C)O)C(=O)N[C@@H](C)C(=O)N[C@@H]([C@@H](C)O)C(=O)N1)[C@@H](C)O)C(C)C)C(=O)N[C@@H](CC(C)C)C(=O)N1CCC[C@H]1C(=O)N1CCC[C@H]1C(=O)N[C@H](C(=O)N[C@@H](CC(N)=O)C(=O)N[C@H](C(=O)NCC(=O)N[C@@H](CO)C(=O)N[C@@H](CC(N)=O)C(=O)N[C@H](C(=O)N[C@@H](Cc1ccc(O)cc1)C(N)=O)[C@@H](C)O)C(C)C)[C@@H](C)O [Peptide 13, K(γE-γE-C18diacid)[CNTATC]ATQRLANFLVHSSNN(αMePhe)GPILPPTNVGSNTY-amide] (H-K([γGlu-γGlu-C18 diacid])CNTATCATQRLANFLVHSSNN[αMeF]GPILPPTNVGSNTY-NH2; disulfide 2-7; N-terminus assumed) | 2040 | 10 | 196 | 25 |
| CC[C@H](C)[C@H](NC(=O)[C@@H]1CCCN1C(=O)CNC(=O)[C@](C)(Cc1ccccc1)NC(=O)[C@H](CC(N)=O)NC(=O)[C@H](CC(N)=O)NC(=O)[C@H](CO)NC(=O)[C@H](CO)NC(=O)[C@H](Cc1c[nH]cn1)NC(=O)[C@H](CCCNC(=N)N)NC(=O)[C@H](CC(C)C)NC(=O)[C@H](Cc1ccccc1)NC(=O)[C@H](CC(N)=O)NC(=O)[C@H](C)NC(=O)[C@H](CC(C)C)NC(=O)[C@H](CCCNC(=N)N)NC(=O)[C@H](CCC(N)=O)NC(=O)[C@@H](NC(=O)[C@H](C)NC(=O)[C@@H]1CSSC[C@H](NC(=O)[C@@H](N)CCCCNC(=O)COCCOCCNC(=O)COCCOCCNC(=O)CC[C@H](NC(=O)CCCCCCCCCCCCCCCCC(=O)O)C(=O)O)C(=O)N[C@@H](CC(N)=O)C(=O)N[C@@H]([C@@H](C)O)C(=O)N[C@@H](C)C(=O)N[C@@H]([C@@H](C)O)C(=O)N1)[C@@H](C)O)C(=O)N[C@@H](CC(C)C)C(=O)N1CCC[C@H]1C(=O)N1CCC[C@H]1C(=O)N[C@H](C(=O)N[C@@H](CCC(=O)O)C(=O)N[C@H](C(=O)NCC(=O)N[C@@H](CO)C(=O)N[C@@H](CC(N)=O)C(=O)N[C@H](C(=O)N[C@@H](Cc1ccc(O)cc1)C(N)=O)[C@@H](C)O)C(C)C)[C@@H](C)O [Peptide 17, K(O2Oc-O2Oc-γE-C18diacid)[CNTATC]ATQRLANFLRHSSNN(αMePhe)GPILPPTEVGSNTY-amide] (H-K([AEEA-AEEA-γGlu-C18 diacid])CNTATCATQRLANFLRHSSNN[αMeF]GPILPPTEVGSNTY-NH2; disulfide 2-7; N-terminus assumed) | 7080 | 19 | 365 | >144 |
| CC[C@H](C)[C@H](NC(=O)[C@@H]1CCCN1C(=O)CNC(=O)[C@H](Cc1ccccc1)NC(=O)[C@H](CC(N)=O)NC(=O)CNC(=O)[C@H](CO)NC(=O)[C@H](CO)NC(=O)[C@H](Cc1c[nH]cn1)NC(=O)C(C)(C)NC(=O)[C@H](CC(C)C)NC(=O)[C@H](Cc1ccccc1)NC(=O)[C@H](CC(N)=O)NC(=O)[C@H](C)NC(=O)[C@H](CC(C)C)NC(=O)[C@H](CCCNC(=N)N)NC(=O)[C@H](CCC(N)=O)NC(=O)[C@@H](NC(=O)[C@H](C)NC(=O)[C@@H]1CSSC[C@H](NC(=O)[C@H](CCCCN)NC(=O)[C@@H](N)CCCCNC(=O)CC[C@H](NC(=O)CCCCCCCCCCCCCCCCC(=O)O)C(=O)O)C(=O)N[C@@H](CC(N)=O)C(=O)N[C@@H]([C@@H](C)O)C(=O)N[C@@H](C)C(=O)N[C@@H]([C@@H](C)O)C(=O)N1)[C@@H](C)O)C(=O)N[C@@H](CC(C)C)C(=O)N1CCC[C@H]1C(=O)N1CCC[C@H]1C(=O)N[C@H](C(=O)N[C@@H](CC(N)=O)C(=O)N[C@H](C(=O)NCC(=O)N[C@@H](CO)C(=O)N[C@@H](CC(N)=O)C(=O)N[C@H](C(=O)N[C@@H](Cc1ccc(O)cc1)C(N)=O)[C@@H](C)O)C(C)C)[C@@H](C)O [Peptide 154] (H-K([γGlu-C18 diacid])KCNTATCATQRLANFL[Aib]HSSGNFGPILPPTNVGSNTY-NH2; disulfide 3-8; N-terminus assumed) | 1540 | 2.7 | 574 |  |
| H-K([AEEA-AEEA-γGlu-C18 diacid])GGGKCNTATCATQRLANFLVHSSNNFGPILPPTNVGSNTY-NH2 (disulfide 6-11) [Peptide 7] | 2160 | 12 | 173 |  |
